For series [1], the system named is IDE. Conditions: cited from earlier work; for Km / kcat / KM: IDE substrate; for Degradation: degradation kinetics compared to insulin.
Series [2] concerns IDE. The note with it: inhibition of insulin degradation, cited from earlier work.
Series [3] deals with IDE. Briefly: Literature survey of IDE substrates, in vitro degradation kinetics. Format: biochemical. Conditions: KM estimated based on IC50 for inhibition of insulin degradation.
For series [4], the target named is T1, hIDE WT (Homo sapiens, UniProt P14735).
T1 construct: The reported N-His6-tagged human IDE42-1019 construct; made in house; host or cells: E. coli Rosetta 2 (DE3) pLysS
T1 sequence (P14735 42-1019): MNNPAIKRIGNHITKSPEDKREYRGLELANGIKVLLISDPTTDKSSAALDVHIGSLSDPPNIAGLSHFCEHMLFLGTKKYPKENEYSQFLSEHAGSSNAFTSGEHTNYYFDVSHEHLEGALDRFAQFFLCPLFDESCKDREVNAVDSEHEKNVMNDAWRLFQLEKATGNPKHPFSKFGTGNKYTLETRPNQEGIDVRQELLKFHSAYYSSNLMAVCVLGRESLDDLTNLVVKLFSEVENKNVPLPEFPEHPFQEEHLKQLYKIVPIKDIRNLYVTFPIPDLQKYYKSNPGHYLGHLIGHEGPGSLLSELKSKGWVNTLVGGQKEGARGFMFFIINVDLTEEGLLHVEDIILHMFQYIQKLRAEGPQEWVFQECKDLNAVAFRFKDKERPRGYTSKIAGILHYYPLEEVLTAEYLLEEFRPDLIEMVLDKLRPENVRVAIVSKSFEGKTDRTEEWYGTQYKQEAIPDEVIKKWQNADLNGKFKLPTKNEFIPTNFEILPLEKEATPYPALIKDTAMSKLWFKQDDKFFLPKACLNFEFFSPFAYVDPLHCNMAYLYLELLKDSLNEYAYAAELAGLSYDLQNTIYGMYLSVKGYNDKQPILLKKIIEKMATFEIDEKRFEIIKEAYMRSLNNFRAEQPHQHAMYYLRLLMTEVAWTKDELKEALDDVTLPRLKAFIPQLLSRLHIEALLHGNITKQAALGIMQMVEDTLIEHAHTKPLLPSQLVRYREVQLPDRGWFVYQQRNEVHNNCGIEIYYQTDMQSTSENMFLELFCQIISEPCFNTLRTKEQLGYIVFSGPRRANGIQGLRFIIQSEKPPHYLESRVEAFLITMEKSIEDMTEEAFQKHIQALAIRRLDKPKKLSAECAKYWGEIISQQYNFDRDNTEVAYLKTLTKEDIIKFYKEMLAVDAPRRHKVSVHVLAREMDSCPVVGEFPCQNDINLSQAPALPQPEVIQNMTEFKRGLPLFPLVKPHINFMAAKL
Briefly: Small molecule-enzyme mutant complementation study, wild type. Format: biochemical. An excerpt:
(§1) Protease assays with fluorogenic peptide substrates. […] All assay data points were obtained in duplicate.
(§2) Site-directed mutagenesis, expression, and purification of human IDE. The reported N-His6-tagged human IDE42-1019 construct was introduced in the expression plasmid pTrcHis-A (Invitrogen) using primers for uracil-specific excision reactions (USER) by Taq (NEB) and Pfu polymerases (PfuTurbo CX®, Agilent). The IDE gene was amplified with the primers 5′-[…]-dU-[…] and 5′-[…] G-dU-[…] (underlined sequences represent overhangs, and italics highlight the PCR priming sequence). Similarly, the pTrcHis-A vector was amplified for USER cloning with the primers 5′-[…] TGA-dU-[…] CCC and 5′-[…]-dU-[…]. Mutant IDE constructs were generated by amplifying the full vector construct with USER cloning primers introducing a mutant overhang (Table 5).
(§3) All PCR products were purified on microcentrifuge membrane columns (MinElute®, Qiagen) and quantified by UV absorbance (NanoDrop). Each fragment (0.2 pmol) was combined in a 10 μL reaction mixture containing 20 units DpnI (NEB), 0.75 units of USER mix (Endonuclease VIII and Uracil-DNA Glycosylase, NEB), 20 mM Tris-acetate, 50 mM potassium acetate, 10 mM magnesium acetate, 1 mM dithiothreitol at pH 7.9 (1× NEBuffer 4). The reactions were incubated at 37° C. for 45 min, followed by heating to 80° C. and slow cooling to 30° C. (0.2° C./s). The hybridized constructs were directly used for heat-shock transformation of chemically competent NEB turbo E. coli cells according to the manufacturer's instructions. Transformants were selected on carbenicillin LB agar, and isolated colonies were cultured overnight in 2 mL LB.
(§4) The plasmid was extracted using a microcentrifuge membrane column kit (Miniprep®, Qiagen), and the sequence of genes and vector junctions were confirmed by Sanger sequencing (Table 6). The plasmid constructs were transformed by heat-shock into chemically-competent expression strain Rosetta 2 (DE3) pLysS E. coli cells (EMD Millipore), and selected on carbenicillin/chloramphenicol LB agar. Cells transformed with IDE pTrcHis A constructs were cultured overnight at 37° C. in 2 XYT media (31 g in 1 L) containing 100 μg/mL ampicillin and 34 μg/mL chloramphenicol. Expression of His6-tagged IDE proteins was induced when the culture measured OD600 ˜0.6 by addition of isopropyl-β-D-1-thiogalactopyranoside (IPTG) to 1 mM final concentration, incubated overnight at 37° C., followed by centrifugation at 10,000 g for 30 min at 4° C.
(§5) Recombinant His6-tagged proteins were purified by Ni(II)-affinity chromatography (IMAC sepharose beads, GE Healthcare®) according to the manufacturer's instructions. The cell pellets were resuspended in pH 8.0 buffer containing 50 mM phosphate, 300 mM NaCl, 10 mM imidazole, 1% Triton X-100 and 1 mM tris(2-carboxyethyl)phosphine hydrochloride (TCEP), and were lysed by probe sonication for 4 min at 4° C., followed by clearing of cell debris by centrifugation at 10,000 g for 25 min at 4° C. The supernatant was incubated with Ni(II)-doped IMAC resin (2 mL) for 3 h at 4° C. The resin was washed twice with the cell resuspension/lysis buffer, and three times with pH 8.0 buffer containing 50 mM phosphate, 300 mM NaCl,50 mM imidazole and 1 mM TCEP. Elution was performed in 2 mL aliquots by raising the imidazole concentration to 250 mM and subsequently to 500 mM in the previous buffer. The fractions were combined and the buffer was exchanged to the recommended IDE buffer (R&D) using spin columns with 100 KDa molecular weight cut off membranes (Millipore). Protein yields were typically ˜10 μg/L, and >90% purity based on gel electrophoresis analysis (Coomassie stained).

In series [5] the target is T2, hIDE W199F (Homo sapiens, UniProt P14735, W199F).
T2 construct: The reported N-His6-tagged human IDE42-1019 construct; made in house; host or cells: E. coli Rosetta 2 (DE3) pLysS
T2 sequence (P14735 42-1019 W199F): as the sequence (P14735 42-1019) above, with W158F counted along it
In words: Small molecule-enzyme mutant complementation study. The note with it: W199F vs hIDE WT, batch 2. Format: biochemical.
From the text: as §1, §2, §3, §4, §5

Series [6] has as its target T3, hIDE A198T (Homo sapiens, UniProt P14735, A198T).
T3 construct: The reported N-His6-tagged human IDE42-1019 construct; made in house; host or cells: E. coli Rosetta 2 (DE3) pLysS
In words: Small molecule-enzyme mutant complementation study. Format: biochemical. The note with it: A198T vs hIDE WT, batch 2.
From the text: as §1, §2, §3, §4, §5

The target in series [7] is T4, hIDE F202L (Homo sapiens, UniProt P14735, F202L).
T4 construct: The reported N-His6-tagged human IDE42-1019 construct; made in house; host or cells: E. coli Rosetta 2 (DE3) pLysS
T4 sequence (P14735 42-1019 F202L): as the sequence (P14735 42-1019) above, with F161L counted along it
Briefly: Small molecule-enzyme mutant complementation study. Format: biochemical. Conditions: F202L vs hIDE WT, batch 1.
From the text: as §1, §2, §3, §4, §5

In series [8] the target is T5, hIDE I310R (Homo sapiens, UniProt P14735, I310R).
T5 construct: The reported N-His6-tagged human IDE42-1019 construct; made in house; host or cells: E. coli Rosetta 2 (DE3) pLysS
T5 sequence (P14735 42-1019 I310R): as the sequence (P14735 42-1019) above, with I269R counted along it
In words: Small molecule-enzyme mutant complementation study. Format: biochemical. Conditions: I310R vs hIDE WT, batch 2.
From the text: as §1, §2, §3, §4, §5

Series [9] concerns the target T6, hIDE F202R (Homo sapiens, UniProt P14735, F202R).
T6 construct: The reported N-His6-tagged human IDE42-1019 construct; made in house; host or cells: E. coli Rosetta 2 (DE3) pLysS
Briefly: Small molecule-enzyme mutant complementation study. Format: biochemical. The note with it: F202R vs hIDE WT, batch 2.
From the text: as §1, §2, §3, §4, §5

The target in series [10] is T7, hIDE K364A (Homo sapiens, UniProt P14735, K364A).
T7 construct: The reported N-His6-tagged human IDE42-1019 construct was introduced in the expression plasmid pTrcHis-A; made in house; host or cells: E. coli Rosetta 2 (DE3) pLysS
T7 sequence (P14735 42-1019 K364A): as the sequence (P14735 42-1019) above, with K323A counted along it
Briefly: Small molecule-enzyme mutant complementation study. Format: biochemical. Conditions: K364A vs hIDE WT, batch 2.
From the text: as §1, §2, §3, §4, §5

Series [11] concerns the target IDE (Homo sapiens, UniProt P14735). Briefly: Protease assay with fluorogenic peptide substrate Mca-[…](Dnp)-OH (IDE species not given). Format: biochemical. Details: The proteases IDE42-1019, recombinant human IDE42-1019 (R&D Systems). The note with it: heavy-labeled vs 6bK. As to the method:
All data points and error bars represent mean±SEM. Significance tests were performed using two-tail Student's t-test, and significance levels shown in the figures are p<0.05 (*) or p<0.01 (**) versus the vehicle-only control group. The in vitro selection of the DNA-templated macrocycle libraryl^16,17 used 20 μg His6-tagged mouse IDE immobilized on cobalt magnetic beads (Dynabeads, Invitrogen). IDE proteolytic activity was assayed with fluorogenic peptide Mca-[…](Dnp)-OH (R&D). IDE inhibition was confirmed using an anti-insulin antibody time-resolved FRET assay (Cysbio), and using an LCMS assay for CGRP cleavage fragments CGRP1-17 and CGRP18-37 in plasma^18. […] Protease assays with fluorogenic peptide substrates. […] (R&D). All assay data points were obtained in duplicate.

“And” between values parts separate entries of the source, which are not always exact repeats. Equal entries are not always repeated. Where two headings read alike, the source gives them in different places. Ends that are not written are not given here. Some results are limits rather than exact numbers.

T6 sequence (P14735 42-1019 F202R): as the sequence (P14735 42-1019) above, with F161R counted along it
Chain of IDE (Homo sapiens, UniProt P14735) (P14735 42-1019): as the sequence (P14735 42-1019) above
T3 sequence (P14735 42-1019 A198T): as the sequence (P14735 42-1019) above, with A157T counted along it

For insulin, in series [1], the Km is under 0.03 µM, the kcat is 0.0253 s⁻¹ and the Degradation result is “Fast”.

Turning to dynorphin A (1-10), in series [1], the Km was 39.4 µM and the kcat is 0.0623 s⁻¹.

Turning to “amylin (KCNTATCATQRLANFLVHSSNNFGAILSSTNVGSNTY; not fully specified (C-terminus, bridges); cysteine pairing not given here; UniProt P10997 34-70, looked up) [IDE substrate in vitro]”, the IC50 in series [2] (read-out: IC50) was 160 nM. In [3], the Km was 0.3 µM. In series [1], the Km is about 0.3 µM and the Degradation result is on record as “Medium”.

Regarding relaxin-3, in series [2] (read-out: IC50), the IC50 is 182 nM. Further, the Km in series [3] is 0.36 µM. Besides, the Degradation result in series [1] is recorded as “Fast”.

Regarding growth hormone releasing factor (1-29), in [1], the Michaelis constant (Km) was 11.9 µM, the kcat was 0.39 s⁻¹ and the Degradation entry was “Slow”.

With β-endorphin (1-31), in series [1], the Km is 13 µM, the kcat is 0.35 s⁻¹ and the Degradation result is recorded as “Slow”.

In the case of “B-type natriuretic peptide [B-type NP (BNP)]”, the IC50 in series [2] (read-out: IC50) was over 1000 nM. For the same compound, in series [1], the KM entry was “weak” and the Degradation result is “Slow”.

Turning to relaxin, the IC50 in [2] (read-out: IC50) was 54 nM. Moreover, in series [3], the Km was 0.11 µM. Further, in series [1], the Degradation entry was “Fast”.

“dynorphin A (1-8) (YGGFLRRI; Dynorphin A(1-8); UniProt P01213 207-214, looked up) [IDE substrate in vitro]”: in [1], the Km was 63.5 µM and the kcat is 0.011 s⁻¹.

As for insulin-like growth factor-1 [IGF-1], in series [1], the KM result is recorded as “Weak” and the Degradation result is recorded as “Slow”.

Turning to somatostatin-14, in series [1], the Km is 7.5 µM, the kcat was 0.38 s⁻¹ and the Degradation result is listed as “Slow”.

dynorphin A (1-9): in series [1], the Michaelis-Menten constant (Km) is 60.5 µM and the kcat is 0.0055 s⁻¹.

Take amyloid-β peptide(40/42) [Aβ (40, 42)]: in series [1], the Km is 1.23 µM, the kcat is 0.867 s⁻¹ and the Degradation entry was “Fast”.

glucagon: in [2], the IC50 result is given as “weak”. In series [1], the Km was 3.5 µM and 3.46 µM; the kcat is 0.633 s⁻¹ and 0.642 s⁻¹; the Degradation entry is “Slow”.

dynorphin B (1-13): in series [1], the Km was 18.3 µM and the kcat was 0.252 s⁻¹.

Turning to dynorphin A (1-17), in [1], the Km was 37.4 µM and the kcat is 0.307 s⁻¹.

As to insulin-like growth factor-2 [IGF-2], the IC50 in [2] (read-out: IC50) is 60 nM. The Km in series [3] is 0.1 µM. Further, the Degradation entry in [1] is reported as “Fast”.

In the case of `CC(C)CC1NC(=O)C(CCC(N)=O)NC(=O)C=CC(=O)NC(C(N)=O)CCCCNC(=O)C(Cc2ccc(C(=O)c3ccccc3)cc2)NC1=O` (centres unmarked) [Compound 13], the IC50 shift in series [4] (batch 1 (reference)) stood at 1.0 fold; in series [4] (batch 2 (reference)), 1.0 fold; in [4] (batch 3 (reference)) it was 1.0 fold; in series [5], 3.2 fold; in series [6], 13.6 fold; in series [7], 2.3 fold. Moreover, the IC50 shift in series [8] turned out to be 0.7 fold; in series [9] it was 4.1 fold; in series [10] it was 10.0 fold.

With kallidin, in series [1], the Km is 7.3 µM and the Degradation result is recorded as “Slow”.

Consider “bradykinin (RPPGFSPFR; Bradykinin; UniProt P01042 381-389, looked up) [IDE substrate in vitro]”, for which, in series [1], the Km was 4.2 µM and the Degradation entry is on record as “Slow”.

Take “dynorphin B (1-9) (YGGFLRRQF; Rimorphin; UniProt P01213 226-234, looked up, fragment) [IDE substrate in vitro]”: in [1], the Km was 26.8 µM and the kcat was 0.172 s⁻¹.

“pancreastatin (1-49) (SEALAVDGAGKPGAEEAQDPEGKGEQEHSQQKEEEEEMAVVPQGLFRGG; Pancreastatin; UniProt P10645 272-320, looked up, fragment) [IDE substrate in vitro]”: in series [1], the Km is 41.7 µM, the kcat is 0.177 s⁻¹ and the Degradation result is “Slow”.

As for `CC(C)(C)c1ccc(CC2NC(=O)C(CC3CCCCC3)NC(=O)C(CCC(N)=O)NC(=O)C=CC(=O)NC(C(N)=O)CCCCNC2=O)cc1` (centres unmarked) [Compound 9], the IC50 shift in [4] (batch 1 (reference)) is 1.0 fold.

As to “atrial natriuretic peptide [atrial NP (ANP)]”, in series [1], the Michaelis-Menten constant (Km) was 0.06 µM and the Degradation entry was “Fast”.

Consider `NC(=O)C1CCCCNC(=O)C(Cc2ccc(C(=O)c3ccccc3)cc2)NC(=O)C(CC2CCCCC2)N[13C](=O)[13CH]([13CH2][13CH2][13CH2][13CH2][15NH2])[15NH]C(=O)C=CC(=O)N1` (centres unmarked) [heavy 6bK], for which the “IC50 compared with 6bK” value in series [11] is given as “identical”.

For the compound “transforming growth factor-alpha [TGF-α]”, the IC50 in series [2] (read-out: IC50) was 80 nM. The Km in series [3] is 0.15 µM. Also, the Degradation entry in series [1] is given as “Fast”.

Regarding “dynorphin A (1-13) (YGGFLRRIRPKLK; Dynorphin A(1-13); UniProt P01213 207-219, looked up) [IDE substrate in vitro]”, in series [1], the Km was 40.6 µM and the kcat was 0.0623 s⁻¹.

The values are drawn from patent publication US20160282364A1, “ASSAY FOR INSULIN-DEGRADING ENZYME (IDE) INHIBITORS” (PRESIDENT AND FELLOWS OF HARVARD COLLEGE, priority 2013, published 2016).
